We go through 34 molecules from patent US8871756B2 (Hoffmann-La Roche Inc., priority 2011, dated 2014).

Where a name gives a salt, the structure may show the parent alone.

One assay concerns RSV Long strain. As to the kind of experiment: Viral cytopathic effect (CPE) assay, anti-RSV activity. Conditions: RSV Long strain (ATCC); cell viability after 6 days, Cell Counting kit-8. The class given is cell-based, Respiratory Syncytial Virus. In short, it runs like this:
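Cells (6×10^3/well, DMEM with 10% FBS) were infected next day with RSV Long strain, at a dose giving approximately 80–90% CPE, alongside serial half-log compound dilutions. Viability was read after 6 days by CCK-8 absorbance at 450 nm (reference 630 nm), and EC50 was derived from it.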
Background: Protection from cytopathic effect is a common read-out in antiviral testing.
Molecule `Cc1ccc2nc(N3CC[S+]([O-])c4ccccc4C3)cc(NCC3(N)COC3)c2c1` (single isomer, unassigned; (+)) [Example 18-2, (+)-N-[(3-Aminooxetan-3-yl)methyl]-6-methyl-2-[1-oxido-2,3-dihydro-1,4-benzothiazepin-4(5H)-yl]quinolin-4-amine] returned an EC50 of 0.024 µM.

Still in this assay, the particulars now being: human respiratory syncytial virus, 144 h, RSV Long strain (ATCC); cell viability after 6 days, Cell Counting kit-8.
Turning to `Cc1ccc2nc(N3CCS(=O)(=O)c4ccccc4C3)cc(N[C@H]3CNC[C@H]3O)c2c1` (relative stereo) [Example 28-4, cis-4-{[2-(1,1-Dioxido-2,3-dihydro-1,4-benzothiazepin-4(5H)-yl)-6-methylquinolin-4-yl]amino}pyrrolidin-3-ol], a half-maximal effect (EC50) was put at 0.001 µM.
Same read-out and setting: as for `Cc1ccc2nc(N3CCS(=O)(=O)c4ccccc4C3)cc(OC3CCNCC3)c2c1` [Example 98-2], the figure is 3.16 µM.
The same measure, in the same setting: as for `Cc1ccc2nc(N3CCS(=O)(=O)c4ccccc4C3)cc(NCCC3(N)CC3)c2c1` [Example 20-3, [2-(1-Amino-cyclopropyl)-ethyl]-[2-(1,1-dioxido-2,3-dihydro-1,4-benzothiazepin-4(5H)-yl)-6-methylquinolin-4-yl]-amine], the figure is 0.093 µM; as for `Cc1ccc2nc(N3CCS(=O)(=O)c4ccccc4C3)nc(N)c2c1` [Example 59, 2-(1,1-Dioxido-2,3-dihydro-1,4-benzothiazepin-4(5H)-yl)-6-methylquinazolin-4-amine], 0.746 µM; as for `CCS(=O)(=O)c1ccc2c(c1)CCCN(c1cc(NCCN)c3ccccc3n1)C2` [Example 120-2, N-{2-[7-(Ethylsulfonyl)-1,3,4,5-tetrahydro-2H-2-benzazepin-2-yl]quinolin-4-yl}ethane-1,2-diamine], 1.79 µM.
Same read-out and setting: the result for `Cc1ccc2nc(N3CCS(=O)(=O)c4ccccc4C3)cc(NCCN)c2c1` [Example 9-16, N-[2-(1,1-Dioxido-2,3-dihydro-1,4-benzothiazepin-4(5H)-yl)-6-methylquinolin-4-yl]ethane-1,2-diamine] reads 0.005 µM; that for `Cc1ccc2nc(N3CCS(=O)(=O)c4ccccc4C3)cc(N3CCC(NC4COC4)C3)c2c1` (stereo not shown) [Example 45-2, 1-[2-(1,1-Dioxido-2,3-dihydro-1,4-benzothiazepin-4(5H)-yl)-6-methylquinolin-4-yl]-N-(oxetan-3-yl)pyrrolidin-3-amine], 0.253 µM.
On to `Cc1ccc2nc(N3CCS(=N)(=O)c4ccccc4C3)cc(NCCN)c2c1` (stereo not shown) [Example 76, N-[2-(1-Imino-1-oxido-1,2,3,5-tetrahydro-4H-1lambda˜4˜,4-benzothiazepin-4-yl)-6-methylquinolin-4-yl]ethane-1,2-diamine], for which the EC50 was 0.006 µM.
The same measure, in the same setting: as for `Cc1ccc2nc(N3CCS(=O)(=O)c4ccccc4C3)cc(NC(=O)C3CCCCN3)c2c1` (stereo not shown) [Example 47-5, N-[2-(1,1-Dioxido-2,3-dihydro-1,4-benzothiazepin-4(5H)-yl)-6-methylquinolin-4-yl]piperidine-2-carboxamide], the figure is 0.835 µM; as for `NCCCNc1cc(N2CCS(=O)(=O)c3ccccc3C2)nc2ccc(C3CC3)cc12` [Example 51, N-[6-Cyclopropyl-2-(1,1-dioxido-2,3-dihydro-1,4-benzothiazepin-4(5H)-yl)quinolin-4-yl]propane-1,3-diamine], 0.056 µM; as for `Cc1ccc2nc(N3CCS(=O)(=O)c4ccccc4C3)cc(N3CCC(C)(O)C3)c2c1` (stereo not shown) [Example 3-45, 1-[2-(1,1-Dioxido-2,3-dihydro-1,4-benzothiazepin-4(5H)-yl)-6-methylquinolin-4-yl]-3-methylpyrrolidin-3-ol], 5.23 µM.
In turn, `Cc1ccc2nc(N3Cc4ccccc4S(=O)(=O)C(C)C3)cc(NCCN)c2c1` (stereo not shown) [Example 69-1, N-[6-Methyl-2-(2-methyl-1,1-dioxido-2,3-dihydro-1,4-benzothiazepin-4(5H)-yl)quinolin-4-yl]ethane-1,2-diamine] showed an EC50 of 0.007 µM.
Same read-out and setting: as for `Cc1ccc2c(c1)S(=O)(=O)CCN(c1cc(NCC3(CN)COC3)c3ccccc3n1)C2` [Example 3-7], the figure is 0.009 µM; as for `Cc1cc2c(NCCN)cc(N3CCS(=O)(=O)c4ccccc4C3)nc2c(F)c1F` [Example 9-25, N-[2-(1,1-Dioxido-2,3-dihydro-1,4-benzothiazepin-4(5H)-yl)-7,8-difluoro-6-methylquinolin-4-yl]ethane-1,2-diamine], 4.08 µM; as for `Cc1ccc2nc(N3CCS(=O)(=O)c4ccccc4C3)cc(NC3(CN)COC3)c2c1` [Example 71, N-[3-(Aminomethyl)oxetan-3-yl]-2-(1,1-dioxido-2,3-dihydro-1,4-benzothiazepin-4(5H)-yl)-6-methylquinolin-4-amine], 0.005 µM.
Still for that read-out and setting: the result for `Cc1ccc2nc(N3CCS(=O)(=O)c4ccccc4C3)cc(NCC3CCCCN3)c2c1` (stereo not shown) [Example 3-41, 2-(1,1-Dioxido-2,3-dihydro-1,4-benzothiazepin-4(5H)-yl)-6-methyl-N-(piperidin-2-ylmethyl)quinolin-4-amine] reads 0.071 µM; that for `Cc1ccc2nc(N3CCS(=O)(=O)c4ccccc4C3)cc(NCC(C)(O)CN)c2c1` (stereo not shown) [Example 11-4, 1-Amino-3-{[2-(1,1-dioxido-2,3-dihydro-1,4-benzothiazepin-4(5H)-yl)-6-methylquinolin-4-yl]amino}-2-methylpropan-2-ol], 0.004 µM.
Still for that read-out and setting: the result for `Cc1cccc2c(NCCCCCCCCCCN)cc(N3CCS(=O)(=O)c4ccccc4C3)nc12` [Example 12-4, N-[2-(1,1-Dioxido-2,3-dihydro-1,4-benzothiazepin-4(5H)-yl)-8-methylquinolin-4-yl]decane-1,10-diamine] reads 0.764 µM; that for `Cc1ccc2nc(N3CCS(=O)(=O)c4ccccc4C3)cc(NCCCCCCCCCO)c2c1` [Example 12-6, 9-{[2-(1,1-Dioxido-2,3-dihydro-1,4-benzothiazepin-4(5H)-yl)-6-methylquinolin-4-yl]amino}nonan-1-ol], 9.21 µM.
Molecule `Cc1ccc2nc(N3CCS(=O)(=O)c4ccccc4C3)cc(NC3CCOCC3)c2c1` [Example 3-27, 2-(1,1-Dioxido-2,3-dihydro-1,4-benzothiazepin-4(5H)-yl)-6-methyl-N-(tetrahydro-2H-pyran-4-yl)quinolin-4-amine] returned an EC50 of 1.39 µM.
Molecule `NC1(CNc2cc(N3CCS(=O)(=O)c4ccccc4C3)nc3ccncc23)COC1` [Example 2-10, N-[(3-Aminooxetan-3-yl)methyl]-2-(1,1-dioxido-2,3-dihydro-1,4-benzothiazepin-4(5H)-yl)-1,6-naphthyridin-4-amine] gave an EC50 of 0.005 µM.
`NCCCNc1cc(N2CCS(=O)(=O)c3ccccc3C2)nc2ccc(C(N)=O)cc12` [Example 81, 4-[(3-Aminopropyl)amino]-2-(1,1-dioxido-2,3-dihydro-1,4-benzothiazepin-4(5H)-yl)quinoline-6-carboxamide]: the EC50 was 0.353 µM.
The same measure, in the same setting: as for `Cc1ccc2nc(N3CCSc4ccccc4C3)cc(N3CCC(N)C3)c2c1` (stereo not shown) [Example 4-4, 1-[2-(2,3-Dihydro-1,4-benzothiazepin-4(5H)-yl)-6-methylquinolin-4-yl]pyrrolidin-3-amine], the figure is 0.208 µM; as for `COc1ccc2c(c1)CN(c1cc(NCC3(CN)COC3)c3cc(C)ccc3n1)CCS2(=O)=O` [Example 3-5, N-{[3-(Aminomethyl)oxetan-3-yl]methyl}-2-(7-methoxy-1,1-dioxido-2,3-dihydro-1,4-benzothiazepin-4(5H)-yl)-6-methylquinolin-4-amine], 0.002 µM.
`CC(C)(N)CNc1cc(N2CCS(=O)(=O)c3ccccc3C2)nc2ccccc12` [Example 5-4, N˜1˜-[2-(1,1-Dioxido-2,3-dihydro-1,4-benzothiazepin-4(5H)-yl)quinolin-4-yl]-2-methylpropane-1,2-diamine]: the EC50 turned out to be 0.326 µM.
With `Cc1ccc2nc(N3CCS(=O)(=O)c4ccccc4C3)cc(Nc3cccc(N)c3)c2c1` [Example 15-1, N-[2-(1,1-Dioxido-2,3-dihydro-1,4-benzothiazepin-4(5H)-yl)-6-methylquinolin-4-yl]benzene-1,3-diamine], a half-maximal effect (EC50) was put at 7.89 µM.
Still for that read-out and setting: as for `Cc1ccc2nc(N3CCS(=O)(=O)c4ccccc4C3)cc(NC3(CNC(=O)C(F)(F)F)COC3)c2c1` [Example 70, N-[(3-{[2-(1,1-Dioxido-2,3-dihydro-1,4-benzothiazepin-4(5H)-yl)-6-methylquinolin-4-yl]amino}oxetan-3-yl)methyl]-2,2,2-trifluoroacetamide], the figure is 0.071 µM.
On the same count and under the same terms, as for `Cc1ccc2nc(N3CCS(=O)(=O)c4ccccc4C3)cc(NCC(C)(C)CN)c2c1` [Example 9-14, N-[2-(1,1-Dioxido-2,3-dihydro-1,4-benzothiazepin-4(5H)-yl)-6-methylquinolin-4-yl]-2,2-dimethylpropane-1,3-diamine], the figure is 0.025 µM.
Still for that read-out and setting: as for `CNC(=O)CNc1cc(N2CCS(=O)(=O)c3ccccc3C2)nc2ccc(C)cc12` [Example 36-6, N^˜2^˜-[2-(1,1-Dioxido-2,3-dihydro-1,4-benzothiazepin-4(5H)-yl)-6-methylquinolin-4-yl]-N-methylglycinamide], the figure is 0.264 µM; as for `NCC(O)CNc1cc(N2CCCc3ccccc3C2)nc2ccccc12` (stereo not shown) [Example 118-8, 1-Amino-3-{[2-(1,3,4,5-tetrahydro-2H-2-benzazepin-2-yl)quinolin-4-yl]amino}propan-2-ol trifluoroacetate (salt)], 0.223 µM.
Molecule `Cc1ccc2nc(N3CCC(F)(F)c4ccccc4C3)cc(NCC(C)(C)N)c2c1` [Example 110-12, N˜1˜-[2-(5,5-Difluoro-1,3,4,5-tetrahydro-2H-2-benzazepin-2-yl)-6-methylquinolin-4-yl]-2-methylpropane-1,2-diamine] yielded an EC50 of 0.072 µM.
On the same count and under the same terms, the result for `Cc1ccc2nc(N3CCS(=O)(=O)c4ccccc4C3)cc(N3CCN(C)CC3)c2c1` [Example 5-6, 4-[6-Methyl-4-(4-methylpiperazin-1-yl)quinolin-2-yl]-2,3,4,5-tetrahydro-1,4-benzothiazepine 1,1-dioxide] reads 2.06 µM.
Same read-out and setting: as for `NCCNc1cc(N2CCCc3cc(F)ccc3C2)nc2ccccc12` [Example 118-16, N-[2-(7-Fluoro-1,3,4,5-tetrahydro-2H-2-benzazepin-2-yl)quinolin-4-yl]ethane-1,2-diamine], the figure is 0.695 µM.

The EC50 is the concentration giving half of the maximal effect. High values mean weaker potency, low ones greater potency.
